From patent US10501425B2, “Microbiocidal oxadiazole derivatives” (SYNGENTA PARTICIPATIONS AG, priority 2015, dated 2019)

What was measured:
[1] = test system: Phakopsora pachyrhizi; assay: Phakopsora pachyrhizi / soybean / leaf disc preventative (Asian soybean rust); format: in vivo; conditions: foliar, 200 ppm in the applied formulation, soybean leaf disks, compared to untreated, read-out: disease control
In short: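 Read-out is percent disease control relative to untreated check discs, assessed once untreated discs show adequate disease, 12 to 14 days after application. Compounds, tested at 200 ppm in the applied formulation, are sprayed onto soybean leaf discs one day before inoculation with a spore suspension.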

[2] = test system: Uromyces viciae-fabae; assay: Uromyces viciae-fabae / field bean / leaf disc preventative (faba-bean rust); format: in vivo; conditions: foliar, 288 h, 100 ppm in the applied formulation, field bean leaf discs, compared to untreated, read-out: disease control
Description: Leaf disks or leaf segments of various plant species are cut from plants grown in a greenhouse. The cut leaf disks or segments are placed in multiwell plates (24-well format) onto water agar. The leaf disks are sprayed with a test solution before (preventative) or after (curative) inoculation. Compounds to be tested are prepared as DMSO solutions (max. 10 mg/ml) which are diluted to the appropriate concentration with 0.025% Tween20 just before spraying. The inoculated leaf disks or segments are incubated under defined conditions (temperature, relative humidity, light, etc.) according to the respective test system. A single evaluation of disease level is carried out 3 to 14 days after inoculation, depending on the pathosystem. Percent disease control relative to the untreated check leaf disks or segments is then calculated. Field bean leaf discs are placed on water agar in multiwell plates (96-well format) and 10 μl of the formulated test compound diluted in acetone and a spreader pipetted onto the leaf disc. Two hours after application leaf discs are inoculated by spraying a spore suspension on the lower leaf surface. The leaf discs are incubated in a climate cabinet at 22° C. with 18 hour light/day and 70% relative humidity. The activity of a compound is assessed as percent disease control compared to untreated when an appropriate level of disease damage appears in untreated check leaf disks (12 days after application). The following compounds at 100 ppm in the applied formulation give at least 80% disease control in this test when compared to untreated control leaf discs under the same conditions, which show extensive disease development.

[3] = test system: Puccinia recondita f. Sp. Tritici; assay: Puccinia recondita f. sp. tritici / wheat / leaf disc preventative (brown rust); format: in vivo; conditions: foliar, 200 ppm in the applied formulation, wheat leaf segments cv. Kanzler, preventative (inoculated 1 day after application), compared to untreated, read-out: disease control
In short: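 Single evaluation 7–9 d after spraying: % disease control compared with untreated leaf segments. Protocol: cv. Kanzler segments, preventative spray at 200 ppm, spore inoculation at day 1, 19° C., 75% rh, 12 h light/12 h dark.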

[4] = test system: Puccinia recondita f. Sp. Tritici; assay: Puccinia recondita f. sp. tritici / wheat / leaf disc curative (brown rust); format: in vivo; conditions: foliar, 24 h, 200 ppm in the applied formulation, wheat leaf segments cv. Kanzler, curative (applied 1 day after inoculation), compared to untreated, read-out: disease control
In short: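 Segments of wheat (cultivar Kanzler) sit on agar and are spore-inoculated first; after one day in darkness at 19° C and 75% RH the diluted formulated compound is sprayed on. A 12 h photoperiod follows at the same temperature and humidity before disease is scored against untreated controls.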

[5] = test system: Glomerella lacenarium (Colletotrichum lagenarium); assay: Glomerella lagenarium liquid culture / cucumber / preventative (anthracnose); format: cell-based; conditions: Colletotrichum orbiculare; 20 ppm in the applied formulation; liquid culture (PDB), growth inhibition measured photometrically 3 to 4 days after application; compared to untreated; read-out: disease control
In short: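 Conidia from cryogenic storage were mixed into potato dextrose broth. This was added to compound diluted from DMSO into 0.025% Tween20, tested at 20 ppm. Plates were incubated in the dark at 24 °C and 96% relative humidity, and growth was read photometrically after 2–7 days as % activity versus untreated check.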

| SMILES | melting point | pest or weed control at 200 ppm [1] | pest or weed control at 100 ppm [2] | pest or weed control at 200 ppm [3] | pest or weed control at 200 ppm [4] | inhibition of growth at 20 ppm [5] |
| --- | --- | --- | --- | --- | --- | --- |
| O=C(CCCCC(F)(F)F)NCc1ccc(-c2noc(C(F)(F)F)n2)cc1 [Compound 1.18, 6,6,6-trifluoro-N-[[4-[5-(trifluoromethyl)-1,2,4-oxadiazol-3-yl]phenyl]methyl]hexanamide] |  | ≥ 80% | ≥ 80% | ≥ 80% |  |  |
| CCC(=O)NC(C#N)c1ccc(-c2noc(C(F)(F)F)n2)cc1 (stereo not shown) [Compound 1.100, N-[cyano-[4-[5-(trifluoromethyl)-1,2,4-oxadiazol-3-yl]phenyl]methyl]propanamide] | 185 to 186 °C | ≥ 80% |  | ≥ 80% | ≥ 80% | ≥ 80% |
| CCC(CC(=O)NCc1ccc(-c2noc(C(F)(F)F)n2)cc1)C(F)(F)F (stereo not shown) [Compound 1.24, 3-(trifluoromethyl)-N-[[4-[5-(trifluoromethyl)-1,2,4-oxadiazol-3-yl]phenyl]methyl]pentanamide] |  |  | ≥ 80% |  |  |  |
| CON(C)C(=O)NCc1ccc(-c2noc(C(F)(F)F)n2)cc1 [Compound 3.2, 1-methoxy-1-methyl-3-[[4-[5-(trifluoromethyl)-1,2,4-oxadiazol-3-yl]phenyl]methyl]urea] | 90.2 to 93.8 °C | ≥ 80% |  | ≥ 80% | ≥ 80% | ≥ 80% |
| COCCC(=O)NC(C)(C)c1ccc(-c2noc(C(F)(F)F)n2)cc1 [Compound 1.94, 3-methoxy-N-[1-methyl-1-[4-[5-(trifluoromethyl)-1,2,4-oxadiazol-3-yl]phenyl]ethyl]propanamide] | 94 to 103 °C | ≥ 80% |  | ≥ 80% | ≥ 80% | ≥ 80% |
| CCC(=O)NCc1ccc(-c2noc(C(F)(F)F)n2)c(F)c1 [Compound 1.34, N-[[3-fluoro-4-[5-(trifluoromethyl)-1,2,4-oxadiazol-3-yl]phenyl]methyl]propanamide] | 108 to 110 °C | ≥ 80% |  | ≥ 80% | ≥ 80% | ≥ 80% |
| CCC(=O)NC(C)(C)c1ccc(-c2noc(C(F)(F)F)n2)cc1 [Compound 1.93, N-[1-methyl-1-[4-[5-(trifluoromethyl)-1,2,4-oxadiazol-3-yl]phenyl]ethyl]propanamide] | 142 to 146 °C | ≥ 80% |  | ≥ 80% | ≥ 80% | ≥ 80% |
| CCC(=O)NCc1ccc(-c2noc(C(F)(F)F)n2)cc1F [Compound 1.26, N-[[2-fluoro-4-[5-(trifluoromethyl)-1,2,4-oxadiazol-3-yl]phenyl]methyl]propanamide] | 99 to 110 °C | ≥ 80% |  | ≥ 80% | ≥ 80% | ≥ 80% |
| CCC(=O)NCc1ccc(-c2noc(C(F)(F)F)n2)c(F)c1F [Compound 1.54, N-[[2,3-difluoro-4-[5-(trifluoromethyl)-1,2,4-oxadiazol-3-yl]phenyl]methyl]propanamide] | 112 to 118 °C | ≥ 80% |  | ≥ 80% | ≥ 80% | ≥ 80% |
| CON(C)C(=O)NCCc1ccc(-c2noc(C(F)(F)F)n2)cc1 [Compound 3.5, 1-methoxy-1-methyl-3-[2-[4-[5-(trifluoromethyl)-1,2,4-oxadiazol-3-yl]phenyl]ethyl]urea] | 80 to 84 °C | ≥ 80% |  | ≥ 80% | ≥ 80% | ≥ 80% |
| CON(C)C(=O)NC(C)(C)c1ccc(-c2noc(C(F)(F)F)n2)cc1 [Compound 3.25, 1-methoxy-1-methyl-3-[1-methyl-1-[4-[5-(trifluoromethyl)-1,2,4-oxadiazol-3-yl]phenyl]ethyl]urea] | 78 to 83 °C | ≥ 80% |  | ≥ 80% | ≥ 80% | ≥ 80% |
| O=C(NCc1ccc(-c2noc(C(F)(F)F)n2)cc1)C(F)(F)F [Compound 1.102, 2,2,2-trifluoro-N-[[4-[5-(trifluoromethyl)-1,2,4-oxadiazol-3-yl]phenyl]methyl]acetamide] | 146 to 149 °C | ≥ 80% |  | ≥ 80% | ≥ 80% | ≥ 80% |

Continued, in another order:

| melting point | SMILES | pest or weed control at 200 ppm [1] | pest or weed control at 100 ppm [2] | pest or weed control at 200 ppm [3] | pest or weed control at 200 ppm [4] | inhibition of growth at 20 ppm [5] |
| --- | --- | --- | --- | --- | --- | --- |
| 152 to 155 °C | COCCNC(=O)NCc1ccc(-c2noc(C(F)(F)F)n2)cc1 [Compound 3.3] | ≥ 80% |  | ≥ 80% | ≥ 80% | ≥ 80% |
| 82 to 85 °C | COCCOC(=O)NCc1ccc(-c2noc(C(F)(F)F)n2)cc1 [Compound 2.3, 2-methoxyethyl N-[[4-[5-(trifluoromethyl)-1,2,4-oxadiazol-3-yl]phenyl]methyl]carbamate] | ≥ 80% |  | ≥ 80% | ≥ 80% | ≥ 80% |
| 127 to 128 °C | COCC(=O)NCc1ccc(-c2noc(C(F)(F)F)n2)cc1 [Compound 1.25, 2-methoxy-N-[[4-[5-(trifluoromethyl)-1,2,4-oxadiazol-3-yl]phenyl]methyl]acetamide] | ≥ 80% |  | ≥ 80% | ≥ 80% | ≥ 80% |
| 198 to 201 °C | CNC(=O)NCc1ccc(-c2noc(C(F)(F)F)n2)cc1 [Compound 3.4, 1-methyl-3-[[4-[5-(trifluoromethyl)-l,2,4-oxadiazol-3-yl]phenyl]methyl]urea] | ≥ 80% |  | ≥ 80% | ≥ 80% | ≥ 80% |
| 130 to 135 °C | CC(=O)NCc1ccc(-c2noc(C(F)(F)F)n2)cc1 [Compound 1.101, N-[[4-[5-(trifluoromethyl)-1,2,4-oxadiazol-3-yl]phenyl]methyl]acetamide] | ≥ 80% |  | ≥ 80% | ≥ 80% | ≥ 80% |
| 107.8 to 109.7 °C | CCCOC(=O)NCc1ccc(-c2noc(C(F)(F)F)n2)cc1 [Compound 2.6, propyl N-[[4-[5-(trifluoromethyl)-1,2,4-oxadiazol-3-yl]phenyl]methyl]carbamate] | ≥ 80% |  | ≥ 80% | ≥ 80% | ≥ 80% |
| 116 to 119 °C | COC(=O)NCc1ccc(-c2noc(C(F)(F)F)n2)cc1 [Compound 2.4, methyl N-[[4-[5-(trifluoromethyl)-1,2,4-oxadiazol-3-yl]phenyl]methyl]carbamate] | ≥ 80% |  | ≥ 80% | ≥ 80% | ≥ 80% |
| 93 to 95 °C | C#CCOC(=O)NCc1ccc(-c2noc(C(F)(F)F)n2)cc1 [Compound 2.19, prop-2-ynyl N-[[4-[5-(trifluoromethyl)-1,2,4-oxadiazol-3-yl]phenyl]methyl]carbamate] | ≥ 80% |  | ≥ 80% | ≥ 80% | ≥ 80% |
